Assay results from patent US9353081B2, “Bicyclic dihydroquinoline-2-one derivatives” (Hoffmann-La Roche Inc., priority 2011, dated 2016).
Blank lines part the entries; values can stand above or below the compound they belong to.

Tests used:
human CYP11B2 = human CYP11B2 (Homo sapiens (Human), UniProt P19099); assay: G-402 cellular enzyme assay, human CYP11B2 (aldosterone release, HTRF); type: cell-based; conditions: G-402 cells expressing human CYP11B2; 1 μM Deoxycorticosterone
Excerpt: (§1) Specifically we developed stable G-402 cells expressing ectopically human CYP11B1, human CYP11B2, human CYP11A1, cynomolgus CYP11B1 or cynomolgus CYP11B2 enzyme activity.
(§2) The expression plasmids contains the ORF for either human/cyno CYP11B1 or CYP11B2 under the control of a suitable promoter (CMV-promoter) and a suitable resistance marker (neomycin). Using standard techniques the expression plasmid is transfected into G-402 cells and these cells are then selected for expressing the given resistance markers. Individual cell-clones are then selected and assessed for displaying the desired enzymatic activity using 11-Deoxycorticosterone (Cyp11B2) or 11-Deoxycortisol (Cyp11B1) as a substrate.
(§3) For assaying enzymatic activity, cells were plated onto 96 well plates and incubated for 16 h. An aliquot of the supernatant is then transferred and analyzed for the concentration of the expected product (Aldosterone for CYP11B2; Cortisol for CYP11B1). The concentrations of these steroids can be determined using HTRF assays from CisBio analyzing either Aldosterone or Cortisol.
(§4) Inhibition of the release of produced steroids can be used as a measure of the respective enzyme inhibition by test compounds added during the cellular enzyme assay. The dose dependent inhibition of enzymatic activity by a compound is calculated by means of plotting added inhibitor concentrations x-axes) vs. measured steroid/product level (y-axes). The inhibition is then calculated by fitting the following 4-parameter sigmoidal function (Morgan-Mercer-Flodin (MMF) model) to the raw data points using the least squares method:
(§5) [formula] wherein, A is the maximum y value, B is the EC50 factor determined using XLFit, C is the minimum y value and D is the slope value.
(§6) EC50 values for compounds claimed herein were tested with the G402-based assay system described. Cyp11B2 enzyme activity was tested in presence of 1 μM Deoxycorticosterone and variable amounts of inhibitors; Cyp11B1 enzyme activity was tested in presence of 1 μM Deoxycortisol and variable amounts of inhibitors.

human CYP11B1 = human CYP11B1 (Homo sapiens (Human), UniProt P15538); assay: G-402 cellular enzyme assay, human CYP11B1 (cortisol release, HTRF); type: cell-based; conditions: G-402 cells expressing human CYP11B1; 1 μM Deoxycortisol
Excerpt: as §1, §2, §3, §4, §5, §6

human CYP11B2, sequence (P19099 25-503): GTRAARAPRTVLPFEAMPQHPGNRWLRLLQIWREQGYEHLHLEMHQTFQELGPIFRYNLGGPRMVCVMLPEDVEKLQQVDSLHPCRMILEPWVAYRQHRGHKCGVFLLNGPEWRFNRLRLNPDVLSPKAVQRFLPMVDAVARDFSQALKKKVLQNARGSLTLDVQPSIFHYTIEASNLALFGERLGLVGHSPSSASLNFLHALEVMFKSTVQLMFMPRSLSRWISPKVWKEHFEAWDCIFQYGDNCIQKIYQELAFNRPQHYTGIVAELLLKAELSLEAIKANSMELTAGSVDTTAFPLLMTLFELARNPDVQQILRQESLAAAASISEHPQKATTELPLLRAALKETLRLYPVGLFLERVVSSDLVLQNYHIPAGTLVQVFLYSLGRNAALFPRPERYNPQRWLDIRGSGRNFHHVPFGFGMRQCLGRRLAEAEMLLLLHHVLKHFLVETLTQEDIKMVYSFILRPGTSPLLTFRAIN
human CYP11B1, sequence (P15538 25-503): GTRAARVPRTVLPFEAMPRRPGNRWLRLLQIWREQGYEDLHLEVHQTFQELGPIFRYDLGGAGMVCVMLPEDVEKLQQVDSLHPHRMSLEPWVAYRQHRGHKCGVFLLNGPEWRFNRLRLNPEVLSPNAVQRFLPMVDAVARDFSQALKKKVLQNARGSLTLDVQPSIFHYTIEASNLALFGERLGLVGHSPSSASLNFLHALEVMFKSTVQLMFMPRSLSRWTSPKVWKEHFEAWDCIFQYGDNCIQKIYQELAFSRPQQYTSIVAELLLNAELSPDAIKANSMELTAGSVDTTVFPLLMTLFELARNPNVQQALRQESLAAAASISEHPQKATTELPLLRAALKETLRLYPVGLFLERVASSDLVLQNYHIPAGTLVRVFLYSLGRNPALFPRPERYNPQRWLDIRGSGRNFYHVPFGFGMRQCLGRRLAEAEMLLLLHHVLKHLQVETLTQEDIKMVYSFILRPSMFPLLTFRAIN

SMILES: CCC(=O)NC1CCCc2c(-c3ccc4c(c3)CCC(=O)N4C)cncc21 (racemic) [Example 1, (rac)-N-(4-(1-Methyl-2-oxo-1,2,3,4-tetrahydroquinolin-6-yl)-5,6,7,8-tetrahydroisoquinolin-8-yl)propionamide]
EC50 (human CYP11B2): 0.03 µM | EC50 (human CYP11B1): 2.37 µM

SMILES: CCS(=O)(=O)NC1CCCc2c(-c3ccc4c(c3)CCC(=O)N4C)cncc21 (racemic) [Example 4, (rac)-N-(4-(1-Methyl-2-oxo-1,2,3,4-tetrahydroquinolin-6-yl)-5,6,7,8-tetrahydroisoquinolin-8-yl)ethanesulfonamide]
EC50 (human CYP11B2): 0.097 µM | EC50 (human CYP11B1): 4.92 µM

SMILES: CCC(=O)NC1CCc2c(-c3ccc4c(c3)CCC(=O)N4C)cncc21 (racemic) [Example 7, (rac)-N-(4-(1-Methyl-2-oxo-1,2,3,4-tetrahydroquinolin-6-yl)-6,7-dihydro-5H-cyclopenta[c]pyridin-7-yl)propionamide]
EC50 (human CYP11B2): 0.012 µM | EC50 (human CYP11B1): 1.11 µM

SMILES: CCS(=O)(=O)NC1CCc2c(-c3ccc4c(c3)CCC(=O)N4C)cncc21 (racemic) [Example 10, (rac)-N-(4-(1-Methyl-2-oxo-1,2,3,4-tetrahydroquinolin-6-yl)-6,7-dihydro-5H-cyclopenta[c]pyridin-7-yl)ethanesulfonamide]
EC50 (human CYP11B2): 0.059 µM | EC50 (human CYP11B1): 4.17 µM

SMILES: CCC(=O)NC1CCc2c(-c3cc4c(cc3F)N(C)C(=O)CC4)cncc21 (racemic) [Example 22, (rac)-N-(4-(7-Fluoro-1-methyl-2-oxo-1,2,3,4-tetrahydroquinolin-6-yl)-6,7-dihydro-5H-cyclopenta[c]pyridin-7-yl)propionamide]
EC50 (human CYP11B2): 0.0102 µM | EC50 (human CYP11B1): 1.2 µM

SMILES: CCS(=O)(=O)NC1CCc2c(-c3cc4c(cc3F)N(C)C(=O)CC4)cncc21 (racemic) [Example 25, (rac)-N-(4-(7-Fluoro-1-methyl-2-oxo-1,2,3,4-tetrahydroquinolin-6-yl)-6,7-dihydro-5H-cyclopenta[c]pyridin-7-yl)ethanesulfonamide]
EC50 (human CYP11B2): 0.0334 µM | EC50 (human CYP11B1): 2.98 µM

SMILES: CCC(=O)NC1CCCc2c(-c3cc4c(cc3F)N(C)C(=O)CC4)cncc21 (racemic) [Example 28, (rac)-N-[4-(7-Fluoro-1-methyl-2-oxo-1,2,3,4-tetrahydro-quinolin-6-yl)-5,6,7,8-tetrahydroisoquinolin-8-yl]-propionamide]
EC50 (human CYP11B2): 0.0749 µM | EC50 (human CYP11B1): 6.82 µM

SMILES: CCC(=O)NC1CCCc2c(-c3cc(Cl)c4c(c3)CCC(=O)N4C)cncc21 (racemic) [Example 33, (rac)-N-[4-(8-Chloro-1-methyl-2-oxo-1,2,3,4-tetrahydro-quinolin-6-yl)-5,6,7,8-tetrahydro-isoquinolin-8-yl]-propionamide]
EC50 (human CYP11B2): 0.0798 µM | EC50 (human CYP11B1): 11.6 µM

SMILES: CCS(=O)(=O)NC1CCCc2c(-c3cc4c(cc3Cl)N(C)C(=O)CC4)cncc21 (racemic) [Example 34, (rac)-Ethanesulfonic acid [4-(7-chloro-1-methyl-2-oxo-1,2,3,4-tetrahydro-quinolin-6-yl)-5,6,7,8-tetrahydro-isoquinolin-8-yl]-amide]
EC50 (human CYP11B2): 0.386 µM | EC50 (human CYP11B1): 34.7 µM

SMILES: CCS(=O)(=O)NC1CCCc2c(-c3cc(F)c4c(c3)CCC(=O)N4C)cncc21 (racemic) [Example 36, (rac)-Ethanesulfonic acid [4-(8-fluoro-1-methyl-2-oxo-1,2,3,4-tetrahydro-quinolin-6-yl)-5,6,7,8-tetrahydro-isoquinolin-8-yl]-amide]
EC50 (human CYP11B2): 0.239 µM | EC50 (human CYP11B1): 20.7 µM

SMILES: CCS(=O)(=O)NC1CCCc2c(-c3cc(Cl)c4c(c3)CCC(=O)N4C)cncc21 (racemic) [Example 37, (rac)-Ethanesulfonic acid [4-(8-chloro-1-methyl-2-oxo-1,2,3,4-tetrahydro-quinolin-6-yl)-5,6,7,8-tetrahydro-isoquinolin-8-yl]-amide]
EC50 (human CYP11B2): 0.199 µM | EC50 (human CYP11B1): 13.5 µM

SMILES: CCC(=O)NC1CCc2c(-c3cc(Cl)c4c(c3)CCC(=O)N4C)cncc21 (racemic) [Example 58, (rac)-N-(4-(8-Chloro-1-methyl-2-oxo-1,2,3,4-tetrahydroquinolin-6-yl)-6,7-dihydro-5H-cyclopenta[c]pyridin-7-yl)propionamide]
EC50 (human CYP11B2): 0.0446 µM | EC50 (human CYP11B1): 7.6 µM

SMILES: CN1C(=O)CCc2cc(-c3cncc4c3CCCC4O)ccc21 (racemic) [Example 67, (rac)-6-(8-Hydroxy-5,6,7,8-tetrahydro-isoquinolin-4-yl)-1-methyl-3,4-dihydroquinolin-2(1H)-one]
EC50 (human CYP11B2): 0.0047 µM | EC50 (human CYP11B1): 0.206 µM

SMILES: CCC(=O)NC1CCCc2c(-c3cc4c(cc3Cl)N(C)C(=O)CC4)cncc21 (single isomer, unassigned) [Example 35, N—[(R or S)-4-(7-Chloro-1-methyl-2-oxo-1,2,3,4-tetrahydro-quinolin-6-yl)-5,6,7,8-tetrahydro-isoquinolin-8-yl]-propionamide]
EC50 (human CYP11B2): 1.77 µM

SMILES: CCC(=O)N[C@H]1c2cncc(-c3ccc4c(c3)CCC(=O)N4C)c2CC[C@@H]1C (single isomer, unassigned) [Example 42, (+)-N-[(7S,8R or 7R,8S)-7-Methyl-4-(1-methyl-2-oxo-1,2,3,4-tetrahydro-quinolin-6-yl)-5,6,7,8-tetrahydro-isoquinolin-8-yl]-propionamide]
EC50 (human CYP11B2): 0.0145 µM | EC50 (human CYP11B1): 0.524 µM

SMILES: CCC(=O)N[C@@H]1c2cncc(-c3cc4c(cc3F)N(C)C(=O)CC4)c2CC[C@@H]1C (single isomer, unassigned) [Example 43, (−)-N-[(7S,8S or 7R,8R)-4-(7-Fluoro-1-methyl-2-oxo-1,2,3,4-tetrahydro-quinolin-6-yl)-7-methyl-5,6,7,8-tetrahydro-isoquinolin-8-yl]-propionamide]
EC50 (human CYP11B2): 0.452 µM | EC50 (human CYP11B1): 32 µM

EC50 (human CYP11B2): 0.467 µM | EC50 (human CYP11B1): 19.3 µM
SMILES: CCC(=O)N[C@@H]1c2cncc(-c3ccc4c(c3)CCC(=O)N4C)c2CC[C@@H]1C (single isomer, unassigned) [Example 46, (−)-N-[(7S,8S or 7R,8R)-7-Methyl-4-(1-methyl-2-oxo-1,2,3,4-tetrahydro-quinolin-6-yl)-5,6,7,8-tetrahydro-isoquinolin-8-yl]-propionamide]

SMILES: CCC(=O)N[C@@H]1c2cncc(-c3ccc4c(c3)CCC(=O)N4C)c2CC[C@H]1C (single isomer, unassigned) [Example 47, (−)-N-[(7R,8S or 7S,8R)-7-Methyl-4-(1-methyl-2-oxo-1,2,3,4-tetrahydro-quinolin-6-yl)-5,6,7,8-tetrahydro-isoquinolin-8-yl]-propionamide]
EC50 (human CYP11B2): 1.82 µM

SMILES: CCC(=O)N[C@@H]1c2cncc(-c3ccc4c(c3)CCC(=O)N4C)c2CC[C@H]1F (single isomer, unassigned) [Example 50, (−)-N-[(7R,8R or 7S,8S)-7-Fluoro-4-(1-methyl-2-oxo-1,2,3,4-tetrahydro-quinolin-6-yl)-5,6,7,8-tetrahydro-isoquinolin-8-yl]-propionamide]
EC50 (human CYP11B2): 4.32 µM

SMILES: CCC(=O)NC1CCc2c(-c3cc4c(cc3F)N(C)C(=O)CC4)cncc21 (single isomer, unassigned; (-)) [Example 23, (−)-(S or R)—N-(4-(7-Fluoro-1-methyl-2-oxo-1,2,3,4-tetrahydroquinolin-6-yl)-6,7-dihydro-5H-cyclopenta[c]pyridin-7-yl)propionamide]
EC50 (human CYP11B2): 1.38 µM

SMILES: CCS(=O)(=O)NC1CCc2c(-c3cc4c(cc3F)N(C)C(=O)CC4)cncc21 (single isomer, unassigned; (-)) [Example 26, (−)-(S or R)—N-(4-(7-Fluoro-1-methyl-2-oxo-1,2,3,4-tetrahydroquinolin-6-yl)-6,7-dihydro-5H-cyclopenta[c]pyridin-7-yl)ethanesulfonamide]
EC50 (human CYP11B2): 4.55 µM

SMILES: CCS(=O)(=O)NC1CCCc2c(-c3cc(Cl)c4c(c3)CCC(=O)N4C)cncc21 (single isomer, unassigned; (-)) [Example 39, (−)-Ethanesulfonic acid [(S or R)-4-(8-chloro-1-methyl-2-oxo-1,2,3,4-tetrahydro-quinolin-6-yl)-5,6,7,8-tetrahydro-isoquinolin-8-yl]-amide]
EC50 (human CYP11B2): 0.13 µM

SMILES: CCC(=O)NC1CCCc2c(-c3cc(Cl)c4c(c3)CCC(=O)N4C)cncc21 (single isomer, unassigned; (-)) [Example 40, (−)-N—[(S or R)-4-(8-Chloro-1-methyl-2-oxo-1,2,3,4-tetrahydro-quinolin-6-yl)-5,6,7,8-tetrahydro-isoquinolin-8-yl]-propionamide]
EC50 (human CYP11B2): 0.126 µM

SMILES: CCC(=O)NC1CCc2c(-c3cc(Cl)c4c(c3)CCC(=O)N4C)cncc21 (single isomer, unassigned; (-)) [Example 59, (−)-(S or R)—N-(4-(8-Chloro-1-methyl-2-oxo-1,2,3,4-tetrahydroquinolin-6-yl)-6,7-dihydro-5H-cyclopenta[c]pyridin-7-yl)propionamide]
EC50 (human CYP11B2): 3.29 µM
